Data reported in PMC8042910, “Adiponectin-mimetic novel nonapeptide rescues aberrant neuronal metabolic-associated memory deficits in Alzheimer’s disease” (Molecular Neurodegeneration, 2021).
Residues, ends and D or L forms follow the SMILES beside them.

Legend:
[1] = system: mice; assay: Safety of chronic optimized dosage regimen in mice; type: in vivo, mouse; conditions: 5 μg/g, i.p.
Description: Os-pep was dissolved in double-deionized distilled water and then prepared in normal saline to obtain the final administered concentration. The AβO, APP/PS1, Adipo^−/− and WT mice were injected i.p. with Os-pep at a dosage of 5 μg/g on alternating days for 45 days. WT, Veh-injected transgenic-APP/PS1 and Adipo^−/− mice were injected with the same volume of double-deionized water and normal saline. The WT control and sham mice as well as the Veh-injected AβO, APP/PS1, Adipo^−/− and HFD mice received the same volume of double-deionized distilled water or normal saline.
We monitored and weighed the mice three times per week to examine the effect of Os-pep dosage regimen (5 µg/g, i.p., on alternating days for 45 days) on the animals’ body weights. At the completion of the treatment, we calculated the average change in the body weight of the mice. At the completion of the treatments and behavioral experiments, blood samples were collected by cardiac puncture of the right atrium. […]

[2] = system: HT22 cells; assay: ApoTox-Glo Triplex assay (viability, cytotoxicity, caspase 3/7), AβO-exposed cells; type: cell-based, mouse; conditions: 12 h
Description: The ApoTox-Glo^TM Triplex assay (Promega, Madison, WI) was performed to assess the viability, cytotoxicity and caspase^3/7 activation in the human neuroblastoma SH-SY5Y and mouse hippocampal HT22 cells. SH-SY5Y and HT22 cells (2×10^4/ml) were cultured in 96-well plates (Thermo Fisher Scientific) containing DMEM supplemented with 10% FBS and 1% antibiotics and incubated at 37°C in a humidified incubator containing 5% CO2. After reaching 70% confluency, the cells were treated with AβO (1 µM) and different concentrations of Os-pep (0.5, 1, 5 and 10 µM) for 12 h. The control group (cells treated with 0.01% DMSO) was also analyzed. In addition, SH-SY5Y and HT22 cells were transfected with the AdipoR1 siRNA (h) (SC-60123) and AdipoR1 siRNA (m) (SC-60124), respectively, and treated with AβO (1 µM) and Os-pep (10 µM) for 12 h; the control group was transfected with the negative siRNA (Ambion, Thermo Fisher Scientific) and treated with 0.01% DMSO. The assay was performed according to our previously described protocols.

[3] = system: p-IRS-1 and p-PI3K/Akt/GSK3β (Ser 9) pathways; assay: Insulin resistance and downstream insulin signaling in APPswe/ind-overexpressing SH-SY5Y cells, immunoblot; type: cell-based, human; conditions: Os-pep 10 μM
Description: Human neuroblastoma SH-SY5Y cells were seeded (in 6-well culture plates for immunoblotting and in chamber slides for immunofluorescence) in DMEM (Dulbecco’s modified Eagle medium) containing 10% fetal bovine serum (FBS) and 1% antibiotics (penicillin-streptomycin) and incubated at 37 °C in humidified air containing 5% CO2. Once the cells reached 70–80% confluence, the cells were transfected using the pCAX vector containing the APPswe/ind gene using Lipofectamine 3000 (Life Technologies) according to the provider’s protocols. AdipoR1 siRNA (h) (SC-60123) and AMPK siRNA (h) (SC-45312) (Santa Cruz Biotechnology, Inc.) were used at a concentration of 10 μM per transfection and expressed for 72 h according to the manufacturer’s protocol (Santa Cruz Biotechnology, Inc.). A negative siRNA (Ambion, Thermo Fisher Scientific) was used as a control. Seventy-two hours after the transfections, the cells were exposed to Os-pep (10 μM) for 12 h and then subjected to immunoblotting and immunofluorescence analyses.
Human neuroblastoma SH-SY5Y cells were treated with 1 µM of insulin for 48 h to produce intrinsic insulin-resistant human neuroblastoma (SH-SY5YIR) cells. After 48 h, SH-SY5YIR cells were overexpressed with human APPswe/ind and subjected with AdipoR1 siRNA which further exposed to 10 nM insulin, Os-pep (10 µM) or compound C (10 µM) for 12 h, and then cell lysates were collected and proceeded accordingly for immunoblotting and ELISA.

[4] = system: LTP; assay: Electrophysiology, LTP in hippocampal CA1 slices; type: in vivo, mouse
[5] = system: learning and memory functions; assay: Morris water maze (MWM) test; type: in vivo, mouse
Description: To evaluate the learning and memory functions of the mice, we performed the Morris water maze (MWM) and Y-maze tests. After completion of the Os-pep dosage regimen, behavioral studies were performed on AβO-injected, AβO-injected and scramble and functional AdipoR1 shRNA-treated, APP/PS1 and Adipo^−/− mice (n = 13/group) using the MWM and Y-maze tests. […] The mice were randomly selected, and the operators were unaware of the genotype and treatment details for the behavioral study. The MWM and Y-maze tests were performed as previously described.

[6] = system: activated caspase-3 and cleaved PARP-1; assay: Apoptotic and neurodegenerative markers in APP/PS1 mouse brain, immunoblot; type: in vivo; conditions: APP/PS1 mice, 5 μg/g, i.p., alternating days for 45 days, n = 8/group
Description: The protein concentrations of the homogenates of mouse brain tissue and cell lysates in vitro were measured using a Bio-Rad protein assay kit (Bio-Rad Laboratories, Hercules, CA), and immunoblotting was performed as we previously described, using primary antibodies (detailed information described in the supplementary Table 1). Western blotting membranes have been cut prior to original western blot images and original western blot images are available at supplementary material.

[7] = AβO-injected, APP/PS1 and Adipo−/− mice, n = 13/group

C[C@@H](O)[C@H](NC(=O)[C@@H]1CCCN1C(=O)CNC(=O)[C@H](CS)NC(=O)[C@@H]1CCCN1C(=O)CNC(=O)[C@H](CCC(N)=O)NC(=O)[C@@H](NC(=O)[C@@H](N)CS)[C@@H](C)O)C(=O)O [Os-pep] (H-CTQGPCGPT-OH; N-terminus and C-terminus assumed)
liver or kidney dysfunction (serum biochemical parameters) ([1]; alternating days for 45 days, APP/PS1, HFD and Adipo−/− mice): did not induce liver or kidney dysfunction | undesirable effects of chronic Os-pep treatment alone ([1]; on alternating days for 45 days, Os-pep alone): did not induce any undesirable effects | AβO-induced toxicity with AdipoR1 siRNA ([2]; AdipoR1 siRNA-transfected HT22, AβO 1 μM, Os-pep 10 μM): did not reduce the AβO-induced toxicity | AβO neurotoxicity (viability, cytotoxicity, caspase 3/7) ([2]; HT22, AβO 1 μM, Os-pep 10 μM): significantly reduced AβO (1 μM) neurotoxicity | neurotoxic effects of AβO ([2]; HT22, AβO 1 μM, cotreatment 0.5, 1, 5 and 10 μM): reduced the neurotoxic effects of AβO | p-IRS-1 Tyr 632 and p-PI3K/Akt/GSK3β (Ser 9) in insulin-resistant cells ([3]; APPswe/ind SH-SY5YIR (insulin 1 μM), 12 h): significantly activated | p-IRS-1 Ser636/312 with AdipoR1 knockdown ([3]; APPswe/ind-overexpressing SH-SY5Y, AdipoR1 siRNA): did not downregulate | p-IRS-1 Tyr 632 and p-PI3K/Akt/GSK3β (Ser 9) with AMPK knockdown ([3]; APPswe/ind-transfected SH-SY5Y, AMPK siRNA): did not upregulate | LTP ([4]; APP/PS1 and Adipo−/− mice, 5 μg/g, i.p., alternating days for 45 days, n = 5–6/group): improved LTP | potentiating effect on LTP with AdipoR1 silencing ([4]; AβO mice with shRNA-mediated silencing of AdipoR1 gene): significantly attenuated | suppression of LTP, scramble shRNA ([4]; scramble shRNA-treated AβO mice, 5 μg/g, i.p., alternating days for 45 days): almost completely rescued to a level comparable to that of normal controls | spatial learning/memory functions with AdipoR1 silencing (MWM and Y-maze) ([5]; AβO-injected mice exposed to shRNA silencing of AdipoR1 gene, vs scramble shRNA): did not improve spatial learning/memory functions | latency to reach the submerged platform, training session ([5]; AβO-injected, APP/PS1 and Adipo−/− mice, 5 μg/g, i.p., alternating days for 45 days, n = 13/group): decrease in the latency | number of platform crossings, probe test [5, 7]: significantly increased number of platform crossings | time spent in the target quadrant, probe test [5, 7]: more time was spent in the target quadrant | activated caspase-3 and cleaved PARP-1 levels [6]: significantly decreased
